Several values for one entry are separate records, joined by “and”; a condition that tells them apart may be missing. Equal values may be shown once.
What was measured:
[1] = test system: experimentally induced large B-cell lymphoma; assay: Therapeutic efficacy in mice with experimentally induced large B-cell lymphoma (blood tests, LDH, body weight, autopsy); assay type: in vivo; conditions: second treated group; M (arithmetic mean of 3 animals)
[2] = test system: hormone resistant metastatic prostate cancer; assay: Patient case: hormone resistant metastatic prostate cancer, PSA; assay type: in vivo, human
Description: A patient presented with hormone resistant metastatic prostate cancer. They had previously been treated with three courses of chemotherapy (Navelbine+Taxotere, but their PSA was still increasing.

[3] = test system: metastatic renal cell carcinoma (stage IV); assay: Patient case: metastatic renal cell carcinoma; assay type: in vivo, human; conditions: 80 mg/day
[4] = test system: human tumor cell lines; assay: Human tumor cell lines in immunocompromised mice, general observations over all tumor types; assay type: in vivo
Description: Immunocompromised mice were used for this experiment. Mice were inbred in a sterile environment and fed ad libitum. Four groups of 40 mice, weighing approximately 20 g each (range: 17-25 g), were used for each tumor type. The human tumor cell lines used were the following: large B-cell lymphoma; squamous-cell carcinoma of the lung; ductal carcinoma breast; and adenocarcinoma of the lung. A suspension of tumor cells was injected in the peritoneum of immunocompromised mice. Following this, mice were examined and weighed daily. After 6-8 days, we observed the development of abdominal carcinomatosis and […]. At day 18, we observed the development of an abundant […], which increased the weight of the mice by approximately 20 g. At that time, mice were divided into four groups of 10. […] Assessment of tumor cell concentration in the […] abdominal metastases were measured on day 18 and every 2 days thereafter. In all mice, prior to treatment, we observed an increase in LDH ESR (>100) and a decrease in the hematocrit. Control (untreated) mice all died between day 21 and day 25 in all tumor types.

[5] = test system: lung large-cell adenocarcinoma metastatic to liver; assay: Patient case: lung large-cell adenocarcinoma metastatic to liver; assay type: in vivo, human; set-up: LDH: unit not given beside the values
Description: A patient was diagnosed with a lung large-cell adenocarcinoma metastatic to liver. They received chemotherapy with no success. […] They also had frequent hemoptysis and elevated LDH, GGT, and bilirubin. The course of the patient's biologic parameters during treatment are depicted in Table 7.

[6] = test system: experimentally induced large B-cell lymphoma; assay: Therapeutic efficacy in mice with experimentally induced large B-cell lymphoma (blood tests, LDH, body weight, autopsy); assay type: in vivo; set-up: Lymphocytes: unit not given here; conditions: for LDH: blood plasma; for Total protein: blood serum; for Lymphocytes: blood
Description: Investigations were carried out on immunocompromised laboratory mice with experimentally-induced large B-cell lymphoma using hematological, immunological, biochemical, anatomical, and cytological methods. Two groups of 15 mice were employed. In the first group, 24-ethyl-cholestane-3β,5α,6α-triol was administered orally daily at a dosage of 5 mg/kg. The second group served as the control. The following parameters of therapeutic efficacy were compared: dynamics of LDH activity in the blood plasma, content of total protein, and general clinical blood test results.
As is seen from Table 2, statistically important differences (P<0.05) between animals with lymphoma and healthy animals were marked by the amount of leukocytes, hemoglobin, by color indication, the absolute number of lymphocytes in blood, as well as the content of total protein in the blood serum and the LDH activity in blood plasma. These changes characterize the presence of disorders in the lymphoid component of blood formation, indicate the presence of intensive cytolysis in the process of carcinogenesis (due to increased LDH), and show the presence of processes suppressing biosynthesis of protein.
The total content of protein in the blood serum and the hemoglobin concentration are increased. At the same time, a decrease in LDH activity in the blood plasma and in the number of lymphocytes was observed (FIG. 5).

[7] = test system: experimental lymphoma; assay: Histological analysis of liver and kidneys of mice with experimental lymphoma; assay type: in vivo; conditions: mouse with experimental lymphoma, orally daily 250 mg/kg
Description: FIGS. 11 and 12 are photomicrographs (450× and 900×, respectively) of part of the liver taken from a mouse with experimental lymphoma orally administered 24-ethyl-cholestane-3β,5α,6α-triol daily at a dosage of 250 mg/kg. Lymphocytic proliferation is insignificant.
Parenchymatous organs liver and kidneys received from mice with experimental lymphoma on the 15th day of observation and from mice treated with 24-ethyl-cholestane-3β,5α,6α-triol were taken for the histological analysis. Micropreparations were stained with hematoxilin eosin and examined by microscopy (FIGS. 9, 10, 11, and 12).

[8] = 5 mg/kg orally daily, course of treatment
[9] = first treated group, M (arithmetic mean of 3 animals)
[10] = first treated group, individual animals
[11] = second treated group, M (arithmetic mean of 3 animals)
[12] = second treated group, individual animals
[13] = third treated group, M (arithmetic mean of 4 animals)
[14] = third treated group, individual animals

Question: Which neutrophiles/lymphocytes [1] does the source give for `CC[C@H](CC[C@@H](C)[C@H]1CC[C@H]2[C@@H]3C[C@H](O)[C@@]4(O)C[C@@H](O)CC[C@]4(C)[C@H]3CC[C@]12C)C(C)C` [24-ethyl-cholestane-3β,5α,6α-triol] here?
Answer: 0.3024

Question: And the PSA ([2]; Day 13, 70 mg/day, Day 0 prior to treatment 1958 (nl < 4))?
Answer: 1590

Question: And the PSA ([2]; Day 15, 70 mg/day)?
Answer: 1142

Question: And the PSA ([2]; Day 67, 70 mg/day)?
Answer: 802

Question: What about the PSA ([2]; Day 110, 70 mg/day) of the same molecule?
Answer: 772

Question: What about the “chest CT scan, nodule in the right lower lobe” value ([3]; eight months later) of the same molecule?
Answer: 1 mm

Question: What about the “chest CT scan” value ([3]; one year after commencing therapy) of the same molecule?
Answer: normal

Question: And the “chest CT scan, left lung metastasis” value ([3]; six weeks after start, 1 cm deposit in both lungs before)?
Answer: disappearance of the left lung metastasis

Question: What about the survival without recurrence ([4]; mice that exhibited a complete response) of the same molecule?
Answer: three month survival without recurrence

Question: What about the general condition ([4]; most of the treated mice) of the same molecule?
Answer: improvement in the general condition

Question: What about the hematological abnormalities ([4]; most of the treated mice) of the same molecule?
Answer: normalization of hematological abnormalities

Question: And the “time to ascitic regression (rapid response to therapy)” value ([4]; most of the treated mice)?
Answer: 1 to 2 days

Question: What about the tumor cells ([4]; most of the treated mice, associated with an important tumor lysis) of the same molecule?
Answer: total clearance of tumor cells

Question: And the LDH ([5]; Day 11, 70 mg/day, Day 0 prior to treatment 2560 (nl < 480))?
Answer: 2264

Question: What about the LDH ([5]; Day 30, 70 mg/day) of the same molecule?
Answer: 283

Question: And the LDH ([5]; Day 63, 70 mg/day)?
Answer: 118

Question: And the “Total Bilirubin” value ([5]; Day 63, 70 mg/day, Day 0 prior to treatment 1.9 (nl < 1))?
Answer: 0.42

Question: And the LDH ([5]; Day 85, 70 mg/day)?
Answer: 230

Question: What about the “Total Bilirubin” value ([5]; Day 85, 70 mg/day) of the same molecule?
Answer: 0.37

Question: What about the GGT ([5]; during treatment, 70 mg/day) of the same molecule?
Answer: 31

Question: And the “CT scans, masses in the lungs and liver” value ([5]; more than a year after commencement of therapy)?
Answer: decrease in number and size of previous masses

Question: And the hemoglobin concentration [6, 8]?
Answer: increased

Question: And the number of lymphocytes [6, 8]?
Answer: decrease

Question: And the “total content of protein in the blood serum” value [6, 8]?
Answer: increased

Question: What about the “autopsy: liver, kidney and spleen tissues, treated animals with lymphoma vs healthy mice” value ([6]; 5 mg/kg orally daily, sixteen days) of the same molecule?
Answer: no differences

Question: And the LDH [6, 9]?
Answer: 962.00 U/L

Question: What about the LDH [6, 10] of the same molecule?
Answer: 1056 U/L and 974 U/L and 856 U/L

Question: What about the LDH [6, 11] of the same molecule?
Answer: 749.7 U/L

Question: What about the LDH [6, 12] of the same molecule?
Answer: 698 U/L and 753 U/L and 798 U/L

Question: And the LDH [6, 13]?
Answer: 673 U/L

Question: What about the LDH [6, 14] of the same molecule?
Answer: 759 U/L and 583 U/L and 697 U/L and 653 U/L

Question: And the Total protein [6, 9]?
Answer: 53.63 g/L

Question: And the Total protein [6, 10]?
Answer: 51.5 g/L and 52.6 g/L and 56.8 g/L

Question: And the Total protein [6, 11]?
Answer: 54.73 g/L

Question: What about the Total protein [6, 12] of the same molecule?
Answer: 52.9 g/L and 54.5 g/L and 56.8 g/L

Question: And the Total protein [6, 13]?
Answer: 57.625 g/L

Question: What about the Total protein [6, 14] of the same molecule?
Answer: 56.5 g/l (2×) and 57.8 g/l and 59.7 g/l

Question: And the Lymphocytes [6, 9]?
Answer: 9.15

Question: And the Lymphocytes [6, 11]?
Answer: 7.523

Question: What about the Lymphocytes [6, 13] of the same molecule?
Answer: 7.464

Question: And the “LDH level in some animals” value ([6]; by the sixteenth day of treatment, some animals)?
Answer: reached the level of healthy animals

Question: And the Body, weight ([6]; day 16, treated vs untreated diseased mice)?
Answer: tendency to a gain in mass

Question: And the “decrease of LDH activity in blood plasma” value ([6]; diseased mice, 5 mg/kg orally daily, by the sixteenth day of treatment)?
Answer: 42.3%

Question: What about the “Body, weight” value [6, 9] of the same molecule?
Answer: 18.04 g

Question: And the neutrophiles/lymphocytes [6, 9]?
Answer: 0.28

Question: What about the “Body, weight” value [6, 10] of the same molecule?
Answer: 18.27 g and 17.86 g and 18.00 g

Question: What about the “Body, weight” value [6, 11] of the same molecule?
Answer: 18.2 g

Question: And the “Body, weight” value [6, 12]?
Answer: 18.28 g and 18.36 g and 17.97 g

Question: And the “Body, weight” value [6, 13]?
Answer: 18.3775 g

Question: What about the neutrophiles/lymphocytes [6, 13] of the same molecule?
Answer: 0.3255

Question: And the “Body, weight” value [6, 14]?
Answer: 18.53 g and 18.12 g and 18.26 g and 18.60 g

Question: And the “lymphocytic proliferation in liver (photomicrographs)” value [7]?
Answer: insignificant
